Reference: patent publication US7589239B2, “Therapeutic agents for the treatment of cancer, metabolic diseases and skin disorders” (Auspex Pharmaceuticals, priority 2005, dated 2009)

Molecular target: T1, human RAR-β (Homo sapiens, UniProt P10826)
T1 sequence (P10826 1-455): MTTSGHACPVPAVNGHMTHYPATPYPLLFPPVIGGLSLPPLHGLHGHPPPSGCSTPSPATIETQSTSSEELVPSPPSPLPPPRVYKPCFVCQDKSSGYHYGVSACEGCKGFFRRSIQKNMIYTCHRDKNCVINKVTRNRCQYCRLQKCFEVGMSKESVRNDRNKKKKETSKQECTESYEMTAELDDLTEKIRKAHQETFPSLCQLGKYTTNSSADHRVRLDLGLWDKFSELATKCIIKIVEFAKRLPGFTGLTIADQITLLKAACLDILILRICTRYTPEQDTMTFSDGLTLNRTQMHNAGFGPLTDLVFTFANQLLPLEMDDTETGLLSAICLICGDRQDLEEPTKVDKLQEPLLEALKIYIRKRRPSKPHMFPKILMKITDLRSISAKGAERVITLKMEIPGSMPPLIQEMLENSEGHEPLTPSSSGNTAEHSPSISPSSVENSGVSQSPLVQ
Experiment: Co-transfection assay (luciferase reporter induction in transfected COS-7 cells)
Experimental: The following assay is a measure of the in-vitro binding affinity of the given compound with human RAR-β in COS-7 cells. Binding of the compound to RAR-β will induce transcription of luciferase within the cells. This level of transcription can be quantified based on the amount of luminescence emitted after incubation of the cell lysate with luciferin.
COS-7 cells were cultured in Dulbecco Modified Eagle's Medium (DMEM) with 4 mM L-glutamine, 4.5 g/L glucose 1.5 g/L sodium bicarbonate and supplemented with 10% fetal bovine serum. Cells were transfected using the calcium phosphate:DNA co-precipitation method. A 10-cm plate of cells was transfected with 5 μg of luciferase reporter construct, 5 μg of expression vector for β-galactosidase, 1 μg of expression vector for RAR-β, and pUC19 as carrier, to a total of 20 μg.
β-galactosidase (5 μg) was included in each transfection to monitor transfection efficiency. Cells were incubated 6 hours at 37° C. in a CO2 incubator. The cells were re-suspended in fresh media containing 10% serum (96-well plate, 15000 cells per well) with or without compound (in 0.5% DMSO) and the plates were incubated at 37° C. in a CO2 incubator. Lysis buffer (1×) was added to cover the cells and the plates were incubated at ambient temperature for 15 min. Luciferase and β-galactosidase assays were performed 36 hours post-transfection, and the normalized luciferase response was determined as relative light units divided by β-galactosidase activity. Composition of 5× lysis buffer is 125 mM. Tris (pH 7.8) with H3PO4 10 mM trans-1,2 diaminocyclohexane-N,N,N′,N′-tetraaceticacid (CDTA), 10 mM dithiothereitol (DTT), 50% glycerol, 5% triton X-100.

fold induction at 3 µM | fold induction at 40 µM | fold induction at 10 µM | SMILES | fold induction at 0.001 µM | fold induction at 0.03 µM | fold induction at 0.1 µM
– | – | – | CC1=C(/C=C/C(C)=C/C=C/C(C)=C/C(=O)O)C(C)(C)CCC1 [ATRA, all-trans-retinoic acid, reference compound] | 9.3 | 13.7 | 19.1
2 | 6 | – | COc1ccc(-c2ccc3cc(B4OC(C)(C)C(C)(C)O4)ccc3c2)cc1C12CC3CC(CC(C3)C1)C2 [Example 9, 2-[6-(3-(1-Adamandyl)-4-methoxyphenyl)-naphthalen-2-yl]-4,4,5,5-tetramethyl[1,3,2]dioxaborolane] | – | – | –
2.1 | – | 3.6 | COc1ccc(-c2ccc3cc(B(O)O)ccc3c2)cc1C12CC3CC(CC(C3)C1)C2 [Example 10, 6-[-3-(1-Adamandyl)-4-methoxyphenyl)-2-naphthoboronic acid] | – | – | –
